Reference: US8334299B2, “β-carboline for the treatment of neurodegenerative diseases” (Ellneuroxx, Ltd., priority 2007, dated 2012)

B1: GDNF: the protein glial cell line-derived neurotrophic factor, infused in Parkinson patients (Love et al.) (protein, UniProt P39905 78-211, looked up)
Glial cell line-derived …: SPDKQMAVLPRRERNRQAAAANPENSRGKGRRGQRGKNRGCVLTAIHLNVTDLGLGYETKEELIFRYCSGSCDAAETTYDKILKNLSRNRRLVSDKVGQACCRPIAFDDDLSFLDDNLVYHILRKHSAKRCGCI

Tested on: dopaminergic neurons in the anterior putamen
Experiment: not given
Settings: patients suffering from Parkinson's disease, infusion; cited from earlier work

| Molecule | cellular extensions of dopaminergic neurons in the anterior putamen | clinical symptoms |
| --- | --- | --- |
| B1 | growth of cellular extensions | improvement in clinical symptoms |

Tested on: dopamine concentration in the striatum
Experiment: Chronic MPP+ infusion model of Parkinson's disease, dopamine concentration in the striatum
Type: in vivo, rat
Design: key to Anti-Parkinson test in comparison to 9-methyl-β-carboline: +: slightly better than 9-methyl-β-carboline; ±: the same as 9-methyl-β-carboline; −: slightly worse than 9-methyl-β-carboline
Settings: tested as described in example 8
Excerpt: In the diagram the dopamine (DA) levels of the left and right striatum of the single rats are indicated.
To investigate Parkinson's disease acute in vivo models are used for years although chronic models would be a better model for the disease. Another disadvantage of the acute models is that ca. 40% of the animals die from the application of the neurotoxin. Therefore, we have chosen a chronic model in which comparably very low doses of neurotoxin 1-methyl-4-phenylpyridinium (MPP^+) were infused for 28 days into the left lateral ventricle of the rat brain. The substance was continuously applied through osmotic minipumps. Thereby, casualties were completely avoided. After four weeks, either solvent or equimolar amounts of the sample substance, namely neuroprotective betacarboline, resp. 9-alkyl-betacarboline was infused for two weeks via the same catheter. In a preliminary study for dose-finding the MPP^+ dose which leads to a reduction by 40% of the dopamine concentration in the striatum was determined. The dopamine concentration in the striatum is a characteristic marker for Parkinson's disease in which a degeneration of dopaminergic neurons occurs.
The compounds A to L were tested as described in example 8. The test results of the compounds A to L are indicated in the following table in comparison to 9-methyl-β-carboline.

| Molecule | Anti-Parkinson test in comparison to 9-methyl-β-carboline |
| --- | --- |
| COCCn1c2ccccc2c2ccncc21 [Compound G] | ± |
| CCCCCCn1c2ccccc2c2ccncc21 [Compound B] | ± |
| C#CCn1c2ccccc2c2ccncc21 [Compound H] | + |
| CC(C)Cn1c2ccccc2c2ccncc21 [Compound E] | + |
| C=CCn1c2ccccc2c2ccncc21 [Compound D] | + |
| CC(C)C(C)Cn1c2ccccc2c2ccncc21 (centres unmarked) [Compound K] | ± |
| CCCn1c2ccccc2c2ccncc21 [Compound A] | + |
| COC(=O)CCn1c2ccccc2c2ccncc21 [Compound J] | ± |
| CCCCCCCCCCCCCCn1c2ccccc2c2ccncc21 [Compound C] | ± |
| c1ccc(Cn2c3ccccc3c3ccncc32)cc1 [Compound I] | − |
| CN(C)CCn1c2ccccc2c2ccncc21 [Compound L] | + |
| CCn1c2ccccc2c2ccncc21 [Compound F] | ± |
